Like-named read-outs stand apart in the source and are kept apart here.
How the values were obtained:
[1] = biological target: T1, catalytic domain of human Bub1 (amino acids 704-1085) (Homo sapiens, UniProt O43683); experiment: Bub1 kinase assay (TR-FRET); format: biochemical
T1 construct: catalytic domain of human Bub1 (amino acids 704-1085); His6 (N); made in house; host or cells: Hi5 insect cells
Experimental: To this end, 100-fold concentrated compound solutions (in DMSO) were previously prepared by serial dilution (1:3.4) of 2 mM stocks in a clear low volume 384-well source microtiter plate (Greiner Bio-One, Frickenhausen, Germany), from which 50 nL of compounds were transferred into a black low volume test microtiter plate from the same supplier. […] The resulting mixture (5 μL final volume) was incubated at 22° C. during 60 min., and the reaction was stopped by the addition of 5 μL of an aqueous EDTA-solution (50 mM EDTA, in 100 mM HEPES pH 7.5 and 0.2% (w/v) bovine serum albumin) which also contained the TR-FRET detection reagents (0.2 μM streptavidin-XL665 [Cisbio Bioassays, Codolet, France] and 1 nM anti-phoshoSerine antibody [Merck Millipore, cat. #35-001] and 0.4 nM LANCE EU-W1024 labeled anti-mouse IgG antibody [Perkin-Elmer, product no. AD0077, alternatively a Terbium-cryptate-labeled anti-mouse IgG antibody from Cisbio Bioassays can be used]). The stopped reaction mixture was further incubated 1 h at 22° C. in order to allow the formation of complexes between peptides and detection reagents. Subsequently, the amount of product was evaluated by measurement of the resonance energy transfer from the Eu-chelate-antibody complex recognizing the Phosphoserine residue to the streptavidin-XL665 bound to the biotin moiety of the peptide.

[2] = test system: HeLa cell line; experiment: Proliferation assay (HeLa cell line); format: cell-based; settings: Homo sapiens, 96 h, read-out: Biological Assay 2: Proliferation assay (HeLa cell line) median IC50
Experimental: (§1) Cultivated tumor cells (cells were ordered from ATCC, except HeLa-MaTu and HeLa-MaTu-ADR, which were ordered from EPO-GmbH, Berlin) were plated at a density of 1000 to 5000 cells/well, depending on the growth rate of the respective cell line, in a 96-well multititer plate in 200 μL of their respective growth medium supplemented 10% fetal calf serum. After 24 hours, the cells of one plate (zero-point plate) were stained with crystal violet (see below), while the medium of the other plates was replaced by fresh culture medium (200 μL), to which the test substances were added in various concentrations (0 μM, as well as in the range of 0.001-10 μM; the final concentration of the solvent dimethyl sulfoxide was 0.5%). The cells were incubated for 4 days in the presence of test substances. Cell proliferation was determined by staining the cells with crystal violet: the cells were fixed by adding 20 μL/measuring point of an 11% glutaric aldehyde solution for 15 minutes at room temperature. After three washing cycles of the fixed cells with water, the plates were dried at room temperature. The cells were stained by adding 100 μL/measuring point of a 0.1% crystal violet solution (pH 3.0). After three washing cycles of the stained cells with water, the plates were dried at room temperature. The dye was dissolved by adding 100 μl/measuring point of a 10% acetic acid solution. Absorbtion was determined by photometry at a wavelength of 595 nm. The change of cell number, in percent, was calculated by normalization of the measured values to the absorbtion values of the zero-point plate (=0%) and the absorbtion of the untreated (0 μm) cells (=100%). The IC50 values were determined by means of a 4 parameter fit.

[3] = test system: HeLa-MaTu-ADR cell line; experiment: Proliferation assay (HeLa-MaTu-ADR cell line); format: cell-based; settings: 96 h, read-out: Biological Assay 2: Proliferation assay (HeLa-MaTu-ADR cell line) median IC50
Experimental: as §1

[4] = test system: NCl-H460 cell line; experiment: Proliferation assay (NCI-H460 cell line); format: cell-based; settings: Homo sapiens, NCI-H460, 96 h, read-out: Biological Assay 2: Proliferation assay (NCl-H460 cell line) median IC50
Experimental: as §1

[5] = test system: DU145 cell line; experiment: Proliferation assay (DU145 cell line); format: cell-based; settings: Homo sapiens, DU-145, 96 h, read-out: Biological Assay 2: Proliferation assay (DU145 cell line) median IC50
Experimental: as §1

[6] = test system: Caco2 cell line; experiment: Proliferation assay (Caco2 cell line); format: cell-based; settings: Homo sapiens, Caco-2, 96 h, read-out: Biological Assay 2: Proliferation assay (Caco2 cell line) median IC50
Experimental: as §1

[7] = test system: B16F10 cell line; experiment: Proliferation assay (B16F10 cell line); format: cell-based; settings: Mus musculus, B16-F10, 96 h, read-out: Biological Assay 2: Proliferation assay (B16F10 cell line) median IC50
Experimental: as §1

[8] = 10 μM ATP, 1 μM peptide substrate, TR-FRET, read-out: Biological Assay 1: Bub1 kinase assay median IC50
[9] = 4 days incubation, crystal violet staining

T1 sequence (O43683 704-1085): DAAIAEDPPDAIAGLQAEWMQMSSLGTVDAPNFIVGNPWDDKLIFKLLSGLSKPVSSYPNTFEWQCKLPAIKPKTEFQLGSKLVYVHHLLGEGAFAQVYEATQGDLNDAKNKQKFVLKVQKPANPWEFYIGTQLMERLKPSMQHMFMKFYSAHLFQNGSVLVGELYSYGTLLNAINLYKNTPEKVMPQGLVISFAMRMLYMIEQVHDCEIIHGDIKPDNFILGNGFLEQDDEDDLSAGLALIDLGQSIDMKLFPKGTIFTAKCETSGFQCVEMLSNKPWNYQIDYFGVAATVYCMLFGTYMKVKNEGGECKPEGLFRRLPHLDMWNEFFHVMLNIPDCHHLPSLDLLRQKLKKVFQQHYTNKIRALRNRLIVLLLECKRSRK

Row | SMILES | IC50 [1, 8] [nM] | IC50 [2] [nM] | IC50 [1] [nM] | IC50 [2, 9] [nM] | further results
1 | CCOc1cc(F)c(Cn2nc(-c3nc(Nc4ccncc4)c(OCCOC)c(Nc4ccncc4)n3)c(C)c2C2CC2)c(F)c1 [Example 2-2-12, 2-[5-cyclopropyl-1-(4-ethoxy-2,6-difluorobenzyl)-4-methyl-1H-pyrazol-3-yl]-5-(2-methoxyethoxy)-N,N′-di(pyridin-4-yl)pyrimidine-4,6-diamine] | 480 | 970 |  |  | IC50 [3]: 730 nM; IC50 [4]: 1200 nM; IC50 [5]: 1700 nM; IC50 [6]: 1100 nM; IC50 [7]: 400 nM
2 | CCOc1cc(F)c(Cn2nc(-c3nc(N)c(NC(=O)COC)c(Nc4ccncc4)n3)c(C)c2C2CC2)c(F)c1 [Example 2-1-27, N-{4-amino-2-[5-cyclopropyl-1-(4-ethoxy-2,6-difluorobenzyl)-4-methyl-1H-pyrazol-3-yl]-6-(pyridin-4-ylamino)pyrimidin-5-yl}-2-methoxyacetamide] | 16 | > 10000 |  |  | 
3 | CCOc1cc(F)c(Cn2nc(-c3nc4c(c(Nc5ccncn5)n3)OCC(=O)N4)c(C)c2C2CC2)c(F)c1 [Example 2-1-33, 2-[5-cyclopropyl-1-(4-ethoxy-2,6-difluorobenzyl)-4-methyl-1H-pyrazol-3-yl]-4-(pyrimidin-4-ylamino)-6H-pyrimido[5,4-b][1,4]oxazin-7(8H)-one] | 34 | 10000 |  |  | 
4 | CCOc1cc(F)c(Cn2nc(-c3nc(N)c(OC)c(Nc4ccncc4)n3)c(C)c2C2CC2)c(F)c1 [Example 2-1-4, 2-[5-cyclopropyl-1-(4-ethoxy-2,6-difluorobenzyl)-4-methyl-1H-pyrazol-3-yl]-5-methoxy-N-(pyridin-4-yl)pyrimidine-4,6-diamine] | 4.8 | 3500 |  |  | 
5 | CCOc1cc(F)c(Cn2nc(-c3nc(NC(=O)NC4CCCCC4)c(N4CCOCC4)c(Nc4ccncc4)n3)c(C)c2C2CC2)c(F)c1 [Example 2-1-20, 1-cyclohexyl-3-{2-[5-cyclopropyl-1-(4-ethoxy-2,6-difluorobenzyl)-4-methyl-1H-pyrazol-3-yl]-5-(morpholin-4-yl)-6-(pyridin-4-ylamino)pyrimidin-4-yl}urea] |  |  | 920 | 3300 | 
6 | CCOc1cc(F)c(Cn2nc(-c3nc(NC(=O)NC4CCCCC4)c(N4CCOCC4)c(Nc4ccncn4)n3)c(C)c2C2CC2)c(F)c1 [Example 2-1-21, 1-cyclohexyl-3-{2-[5-cyclopropyl-1-(4-ethoxy-2,6-difluorobenzyl)-4-methyl-1H-pyrazol-3-yl]-5-(morpholin-4-yl)-6-(pyrimidin-4-ylamino)pyrimidin-4-yl}urea] | 1400 | 7400 |  |  | 
7 | CCOc1cc(F)c(Cn2nc(-c3nc(N)c(OCCOC)c(Nc4ccncn4)n3)c(C)c2C2CC2)c(F)c1 [Example 2-1-26, 2-[5-cyclopropyl-1-(4-ethoxy-2,6-difluorobenzyl)-4-methyl-1H-pyrazol-3-yl]-5-(2-methoxyethoxy)-N-(pyrimidin-4-yl)pyrimidine-4,6-diamine] |  |  | 9.2 | 4200 | 
8 | CCOc1cc(F)c(Cn2nc(-c3nc(N)c(NS(=O)(=O)C(F)(F)F)c(Nc4ccncc4)n3)c(C)c2C2CC2)c(F)c1 [Example 2-1-31, N-{4-amino-2-[5-cyclopropyl-1-(4-ethoxy-2,6-difluorobenzyl)-4-methyl-1H-pyrazol-3-yl]-6-(pyridin-4-ylamino)pyrimidin-5-yl}-1,1,1-trifluoromethanesulfonamide] | 9.8 | 10000 |  |  | 
9 | CCOc1cc(F)c(Cn2nc(-c3nc(N)cc(Nc4ccnnc4)n3)c(C)c2C2CC2)c(F)c1 [Example 2-1-23, 2-[5-cyclopropyl-1-(4-ethoxy-2,6-difluorobenzyl)-4-methyl-1H-pyrazol-3-yl]-N-(pyridazin-4-yl)pyrimidine-4,6-diamine] | 18 | 6000 |  |  | 
10 | CCOc1cc(F)c(Cn2nc(-c3nc(N)cc(Nc4ccncn4)n3)c(C)c2C2CC2)c(F)c1 [Example 2-1-3, 2-[5-cyclopropyl-1-(4-ethoxy-2,6-difluorobenzyl)-4-methyl-1H-pyrazol-3-yl]-N-(pyrimidin-4-yl)pyrimidine-4,6-diamine] | 6.3 | 3100 |  |  | 
11 | CCOc1cc(F)c(Cn2nc(-c3nc(Nc4ccncn4)c(NC(=O)COC)c(Nc4ccncn4)n3)c(C)c2C2CC2)c(F)c1 [Example 2-2-15, N-{2-[5-cyclopropyl-1-(4-ethoxy-2,6-difluorobenzyl)-4-methyl-1H-pyrazol-3-yl]-4,6-bis(pyrimidin-4-ylamino)pyrimidin-5-yl}-2-methoxyacetamide] |  |  | 42 | 4700 | 

Continued, in another order:

Row | IC50 [1, 8] [nM] | IC50 [2] [nM] | IC50 [1] [nM] | IC50 [2, 9] [nM] | SMILES | further results
12 | 2100 | 5600 |  |  | CCNC(=O)Nc1nc(-c2nn(Cc3c(F)cc(OCC)cc3F)c(C3CC3)c2C)nc(Nc2ccncn2)c1N1CCOCC1 [Example 2-1-19, 1-{2-[5-cyclopropyl-1-(4-ethoxy-2,6-difluorobenzyl)-4-methyl-1H-pyrazol-3-yl]-5-(morpholin-4-yl)-6-(pyrimidin-4-ylamino)pyrimidin-4-yl}-3-ethylurea] | 
13 |  |  | 12 | 6000 | CCOc1cc(F)c(Cn2nc(-c3nc(N)nc(Nc4ccncn4)n3)c(C)c2C2CC2)c(F)c1 [Example 2-1-9, 6-[5-cyclopropyl-1-(4-ethoxy-2,6-difluorobenzyl)-4-methyl-1H-pyrazol-3-yl]-N-(pyrimidin-4-yl)-1,3,5-triazine-2,4-diamine] | 
14 |  |  | 13 | 10000 | CCOc1cc(F)c(Cn2nc(-c3nc(N)c(NC(=O)COC)c(Nc4ccncn4)n3)c(C)c2C2CC2)c(F)c1 [Example 2-1-28, N-{4-amino-2-[5-cyclopropyl-1-(4-ethoxy-2,6-difluorobenzyl)-4-methyl-1H-pyrazol-3-yl]-6-(pyrimidin-4-ylamino)pyrimidin-5-yl}-2-methoxyacetamide] | 
15 | 13000 | 3000 |  |  | CCOc1cc(F)c(Cn2nc(-c3nc(Nc4ccncc4)c(NS(=O)(=O)C(F)(F)F)c(Nc4ccncc4)n3)c(C)c2C2CC2)c(F)c1 [Example 2-2-18, N-{2-[5-cyclopropyl-1-(4-ethoxy-2,6-difluorobenzyl)-4-methyl-1H-pyrazol-3-yl]-4,6-bis(pyridin-4-ylamino)pyrimidin-5-yl}-1,1,1-trifluoromethanesulfonamide] | 
16 |  |  | 130 | 6000 | CCOc1cc(F)c(Cn2nc(-c3nc(N)nc(Nc4ccnnc4)n3)c(C)c2C2CC2)c(F)c1 [Example 2-1-24, 6-[5-cyclopropyl-1-(4-ethoxy-2,6-difluorobenzyl)-4-methyl-1H-pyrazol-3-yl]-N-(pyridazin-4-yl)-1,3,5-triazine-2,4-diamine] | 
17 | 130 | 4900 |  |  | CCNC(=O)Nc1cc(Nc2ccncn2)nc(-c2nn(Cc3c(F)cc(OCC)cc3F)c(C3CC3)c2C)n1 [Example 2-1-11, 1-{2-[5-cyclopropyl-1-(4-ethoxy-2,6-difluorobenzyl)-4-methyl-1H-pyrazol-3-yl]-6-(pyrimidin-4-ylamino)pyrimidin-4-yl}-3-ethylurea] | 
18 | 9.8 | 5300 |  |  | CCOc1cc(F)c(Cn2nc(-c3nc(N)c(N4CCOCC4)c(Nc4ccncn4)n3)c(C)c2C2CC2)c(F)c1 [Example 2-1-7, 2-[5-cyclopropyl-1-(4-ethoxy-2,6-difluorobenzyl)-4-methyl-1H-pyrazol-3-yl]-5-(morpholin-4-yl)-N-(pyrimidin-4-yl)pyrimidine-4,6-diamine] | 
